Assay results from ChEMBL document CHEMBL5150023, “The Pursuit of Enzyme Activation: A Snapshot of the Gold Rush” (J Med Chem, 2022).
One block for each molecule: values may come before it.

Assays:
[1] = Activation of human G6PD canton (R459L) mutant assessed as restoration of activity using G6P as substrate incubated for 3 hrs d by substrate addition and mesured after 2.5 mins by diaphorase-coupled enzyme assay
Homo sapiens = species on record: Homo sapiens; assay: Activation of human G6PD canton (R459L) mutant assessed as restoration of activity using G6P as substrate incubated for 3 hrs d by substrate addition and mesured after 2.5 mins by diaphorase-coupled enzyme assay relative to wild type G6PD activity percentage
[2] = target: T1, Serine/threonine-protein kinase ULK1 (Homo sapiens) (UniProt O75385); assay: Agonist activity at ULK1 (unknown origin) expressed in HEK293T cells at 100 nM incubated for 60 mins by ADP-Glo luminescence assay relative to control; assay type: cell-based; conditions: filed as agonist
T1 sequence (whole entry): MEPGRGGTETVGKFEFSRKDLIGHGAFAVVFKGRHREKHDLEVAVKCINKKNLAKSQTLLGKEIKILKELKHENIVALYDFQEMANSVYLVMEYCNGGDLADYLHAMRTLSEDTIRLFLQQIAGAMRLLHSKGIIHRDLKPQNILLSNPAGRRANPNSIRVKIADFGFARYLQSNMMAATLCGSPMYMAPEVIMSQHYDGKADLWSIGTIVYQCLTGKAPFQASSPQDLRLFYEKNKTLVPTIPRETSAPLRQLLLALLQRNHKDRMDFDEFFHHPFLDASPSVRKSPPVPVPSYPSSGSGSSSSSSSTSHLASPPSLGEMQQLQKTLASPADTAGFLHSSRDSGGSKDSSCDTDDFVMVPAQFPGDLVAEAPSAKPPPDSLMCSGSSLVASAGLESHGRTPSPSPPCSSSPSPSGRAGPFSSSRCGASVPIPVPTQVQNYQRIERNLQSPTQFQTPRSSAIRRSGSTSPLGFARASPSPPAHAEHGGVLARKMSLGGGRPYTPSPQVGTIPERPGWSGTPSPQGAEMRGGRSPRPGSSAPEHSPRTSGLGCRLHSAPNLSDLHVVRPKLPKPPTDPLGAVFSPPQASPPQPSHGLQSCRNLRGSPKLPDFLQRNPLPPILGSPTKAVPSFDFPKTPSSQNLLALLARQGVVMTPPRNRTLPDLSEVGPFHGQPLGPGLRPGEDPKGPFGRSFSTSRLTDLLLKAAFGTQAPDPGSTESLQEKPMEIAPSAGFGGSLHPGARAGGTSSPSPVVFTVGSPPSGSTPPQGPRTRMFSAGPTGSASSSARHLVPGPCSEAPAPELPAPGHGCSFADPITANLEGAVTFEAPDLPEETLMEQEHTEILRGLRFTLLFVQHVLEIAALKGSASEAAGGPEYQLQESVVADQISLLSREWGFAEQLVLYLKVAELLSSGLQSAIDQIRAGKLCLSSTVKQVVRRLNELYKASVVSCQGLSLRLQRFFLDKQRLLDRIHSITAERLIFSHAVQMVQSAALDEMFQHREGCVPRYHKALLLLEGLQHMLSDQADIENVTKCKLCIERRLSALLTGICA

[3] = target: T2, NAD-dependent protein deacetylase sirtuin-1 (Homo sapiens) (UniProt Q96EB6); assay: Activation of human N-terminal hexa-histidine tagged SIRT1 expressed in Escherichia coli BL21 (DE3) using peptide substrate by fluorescence polarization assay relative to control; conditions: filed as activator
T2 sequence (whole entry): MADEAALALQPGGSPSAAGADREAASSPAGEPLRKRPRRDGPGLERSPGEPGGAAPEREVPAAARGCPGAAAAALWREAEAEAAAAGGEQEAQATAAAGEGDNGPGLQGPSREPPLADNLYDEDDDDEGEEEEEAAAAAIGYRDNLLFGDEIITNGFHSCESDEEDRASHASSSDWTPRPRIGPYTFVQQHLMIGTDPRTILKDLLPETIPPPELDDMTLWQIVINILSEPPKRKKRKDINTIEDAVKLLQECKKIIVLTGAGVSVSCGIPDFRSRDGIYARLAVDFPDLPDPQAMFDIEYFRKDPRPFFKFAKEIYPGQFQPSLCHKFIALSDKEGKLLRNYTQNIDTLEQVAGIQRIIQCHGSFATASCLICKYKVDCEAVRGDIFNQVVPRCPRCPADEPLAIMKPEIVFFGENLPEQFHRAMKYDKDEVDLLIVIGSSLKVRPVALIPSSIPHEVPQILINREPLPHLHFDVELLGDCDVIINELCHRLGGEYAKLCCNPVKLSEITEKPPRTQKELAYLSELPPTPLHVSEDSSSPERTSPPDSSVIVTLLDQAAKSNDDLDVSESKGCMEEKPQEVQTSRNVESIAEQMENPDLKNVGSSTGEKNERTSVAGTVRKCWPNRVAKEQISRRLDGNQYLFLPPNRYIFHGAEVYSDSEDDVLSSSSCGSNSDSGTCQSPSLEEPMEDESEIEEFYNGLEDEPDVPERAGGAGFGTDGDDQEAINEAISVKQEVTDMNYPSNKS

[4] = target: T2, NAD-dependent protein deacetylase sirtuin-1 (Homo sapiens); assay: Activation of human N-terminal hexa-histidine tagged SIRT1 expressed in Escherichia coli BL21 (DE3) using peptide substrate by fluorescence polarization assay; conditions: filed as activator

EC50 [1]: 3000 nM
Activity (Homo sapiens): 30%
SMILES: c1ccc2c(CCNCCSSCCNCCc3c[nH]c4ccccc34)c[nH]c2c1

Activity [2]: 243%
SMILES: CC(C)CN(CC(=O)N1CCN(CC(OCc2ccc3ccccc3c2)c2ccc(Cl)cc2Cl)CC1)CC(C)C (stereo unspecified)

Emax [3]: 201%
SMILES: Oc1ccc(/C=C/c2cc(O)cc(O)c2)cc1

EC1.5 [4]: 0.16 µM
Emax [3]: 781%
SMILES: O=C(Nc1ccccc1-c1cn2c(CN3CCNCC3)csc2n1)c1cnc2ccccc2n1
